The assay concerns the target T1, recombinant human 5-HT5A receptor (Homo sapiens, UniProt P47898).
T1 construct: expressed in transfected cells; host or cells: HEK-EBNA (Human Embryonic Kidney-EBNA) cells, transient cDNA expression; membranes
Briefly: [3H]LSD radioligand binding assay. As to conditions: [3H]LSD (approximately 1 nM); membranes from transiently expressed 5-HT5A receptors in HEK-EBNA cells; Ki by Cheng-Prussoff equation. The protocol:
Compounds of the invention were tested for 5-HT5A activity in the following assay.
A [^3H]LSD radioligand binding assay was used to determine the affinity of the compounds for the recombinant human 5-HT5A receptor, in membranes from transiently (cDNA) expressed 5-HT5A receptors in Human Embryonic Kidney-EBNA (HEK-EBNA) cells. Assay buffer consisted of Tris (50 mM) buffer containing 1 mM EGTA, 10 mM MgCl2 (pH 7.4) and 10 μM pargyline. The binding assay was carried out in 96-well-plates in the presence of [^3H]LSD (approximately 1 nM), approximately 2 μg/well of membrane protein, and 0.5 mg of Ysi-poly-l-lysine SPA beads in a final volume of 200 μl of buffer. Non-specific binding was defined using methiothepin 2 μM. Compounds were tested at 10 concentrations. All assays were conducted in duplicate and repeated at least two times. Assay plates were incubated for 120 min at room temperature before centrifugation. Bound ligand was determined using a Packard Topcount scintillation counter. IC50 values were calculated using a non-linear curve fitting program and Ki values calated using the Cheng-Prussoff equation.

SMILES strings stand for the structures. pKi: −log10 of the molar value.

Drawing on patent US7781441B2, “(3,4-dihydro-quinazolin-2-yl)-(2-aryloxy-ethyl)-amine” (Hoffmann-La Roche Inc., priority 2005, dated 2010), this text covers Ki for 34 compounds.

T1 sequence (P47898 whole entry): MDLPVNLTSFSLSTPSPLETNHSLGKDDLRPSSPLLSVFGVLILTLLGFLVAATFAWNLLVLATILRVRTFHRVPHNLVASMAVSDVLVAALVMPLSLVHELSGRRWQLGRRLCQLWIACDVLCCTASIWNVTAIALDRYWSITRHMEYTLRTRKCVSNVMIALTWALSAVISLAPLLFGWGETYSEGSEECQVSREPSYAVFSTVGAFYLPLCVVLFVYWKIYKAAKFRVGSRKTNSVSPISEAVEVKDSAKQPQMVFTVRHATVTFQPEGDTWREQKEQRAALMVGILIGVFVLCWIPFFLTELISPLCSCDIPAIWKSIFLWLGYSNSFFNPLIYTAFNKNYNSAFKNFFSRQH

As to `COc1ccccc1OCCNC1=Nc2ccccc2CN1` [Example 1, (3,4-Dihydro-quinazolin-2-yl)-[2-(2-methoxy-phenoxy)-ethyl]-amine], the pKi is 8.12.

For the compound `Fc1ccc2c(c1)CNC(NCCOc1ccccc1)=N2` [Example 2, (6-Fluoro-3,4-dihydro-quinazolin-2-yl)-(2-phenoxy-ethyl)-amine], the pKi is 7.74.

Take `Clc1ccccc1OCCNC1=Nc2ccccc2CN1` [Example 3, [2-(2-Chloro-phenoxy)-ethyl]-(3,4-dihydro-quinazolin-2-yl)-amine]: the pKi is 7.72.

For the compound `Cc1ccc2c(c1)CNC(NCCOc1ccccc1)=N2` [Example 4, (6-Methyl-3,4-dihydro-quinazolin-2-yl)-(2-phenoxy-ethyl)-amine], the pKi was 7.60.

As for `c1ccc(OCCNC2=Nc3ccccc3CN2)cc1` [Example 5, (3,4-Dihydro-quinazolin-2-yl)-(2-phenoxy-ethyl)-amine hydroiodide], the pKi was 7.38.

`Fc1ccccc1OCCNC1=Nc2ccccc2CN1` [Example 6, (3,4-Dihydro-quinazolin-2-yl)-[2-(2-fluoro-phenoxy)-ethyl]-amine]: the negative-log Ki (pKi) is 7.47.

In the case of `Fc1cccc2c1CNC(NCCOc1ccccc1)=N2` [Example 7, (5-Fluoro-3,4-dihydro-quinazolin-2-yl)-(2-phenoxy-ethyl)-amine hydroiodide], the pKi is 7.52.

In the case of `CCOc1ccccc1OCCNC1=Nc2ccccc2CN1` [Example 8, (3,4-Dihydro-quinazolin-2-yl)-[2-(2-ethoxy-phenoxy)-ethyl]-amine], the pKi is 7.42.

With `Clc1cccc2c1CNC(NCCOc1ccccc1)=N2` [Example 9, (5-Chloro-3,4-dihydro-quinazolin-2-yl)-(2-phenoxy-ethyl)-amine hydroiodide], the pKi is 7.28.

Turning to `Cc1cccc2c1CNC(NCCOc1ccccc1)=N2` [Example 10, (5-Methyl-3,4-dihydro-quinazolin-2-yl)-(2-phenoxy-ethyl)-amine hydroiodide], the pKi is 7.34.

`CC1NC(NCCOc2ccccc2)=Nc2ccccc21` (stereo not shown) [Example 11, (4-Methyl-3,4-dihydro-quinazolin-2-yl)-(2-phenoxy-ethyl)-amine hydroiodide]: the negative-log Ki (pKi) is 7.24.

With `Cc1cccc(OCCNC2=Nc3ccccc3CN2)c1` [Example 12, (3,4-Dihydro-quinazolin-2-yl)-(2-m-tolyloxy-ethyl)-amine], the pKi was 7.19.

For the compound `FC(F)(F)Oc1ccccc1OCCNC1=Nc2ccccc2CN1` [Example 13, (3,4-Dihydro-quinazolin-2-yl)-[2-(2-trifluoromethoxy-phenoxy)-ethyl]-amine], the pKi is 7.14.

For `Clc1ccc2c(c1Cl)CNC(NCCOc1ccccc1)=N2` [Example 14, (5,6-Dichloro-3,4-dihydro-quinazolin-2-yl)-(2-phenoxy-ethyl)-amine hydroiodide], the pKi was 7.12.

Regarding `COc1ccc2c(c1)CNC(NCCOc1ccccc1)=N2` [Example 15, (6-Methoxy-3,4-dihydro-quinazolin-2-yl)-(2-phenoxy-ethyl)-amine], the pKi is 7.12.

For `COc1cccc(OCCNC2=Nc3ccccc3CN2)c1` [Example 16, (3,4-Dihydro-quinazolin-2-yl)-[2-(3-methoxy-phenoxy)-ethyl]-amine], the negative-log Ki (pKi) was 7.02.

As to `Fc1cccc(OCCNC2=Nc3ccccc3CN2)c1` [Example 17, (3,4-Dihydro-quinazolin-2-yl)-[2-(3-fluoro-phenoxy)-ethyl]-amine], the pKi was 7.02.

As for `Clc1cccc(OCCNC2=Nc3ccccc3CN2)c1` [Example 18, [2-(3-Chloro-phenoxy)-ethyl]-(3,4-dihydro-quinazolin-2-yl)-amine], the pKi was 7.00.

`COc1ccccc1OCCNC1=Nc2ccc(F)cc2CN1` [Example 29, (6-Fluoro-3,4-dihydro-quinazolin-2-yl)-[2-(2-methoxy-phenoxy)-ethyl]-amine]: the pKi is 7.70.

`C/C=C/c1ccccc1OCCNC1=Nc2ccccc2CN1` [Example 34, (3,4-Dihydro-quinazolin-2-yl)-[2-(2-propenyl-phenoxy)-ethyl]-amine]: the pKi is 7.23.

Take `CSc1ccccc1OCCNC1=Nc2ccccc2CN1` [Example 35, (3,4-Dihydro-quinazolin-2-yl)-[2-(2-methylsulfanyl-phenoxy)-ethyl]-amine]: the pKi is 7.45.

In the case of `Brc1ccccc1OCCNC1=Nc2ccccc2CN1` [Example 37, [2-(2-Bromo-phenoxy)-ethyl]-(3,4-dihydro-quinazolin-2-yl)-amine], the pKi is 7.65.

Take `N#Cc1ccccc1OCCNC1=Nc2ccccc2CN1` [Example 38, 2-[2-(3,4-Dihydro-quinazolin-2-ylamino)-ethoxy]-benzonitrile]: the pKi is 7.27.

For the compound `c1ccc(COc2ccccc2OCCNC2=Nc3ccccc3CN2)cc1` [Example 39, [2-(2-Benzyloxy-phenoxy)-ethyl]-(3,4-dihydro-quinazolin-2-yl)-amine], the pKi was 7.06.

For `COc1cccc(OC)c1OCCNC1=Nc2ccccc2CN1` [Example 41, (3,4-Dihydro-quinazolin-2-yl)-[2-(2,6-dimethoxy-phenoxy)-ethyl]-amine], the pKi was 7.04.

In the case of `COc1ccc(C)cc1OCCNC1=Nc2ccccc2CN1` [Example 44, (3,4-Dihydro-quinazolin-2-yl)-[2-(2-methoxy-5-methyl-phenoxy)-ethyl]-amine], the pKi was 7.08.

Take `COc1cccc(F)c1OCCNC1=Nc2ccccc2CN1` [Example 45, (3,4-Dihydro-quinazolin-2-yl)-[2-(2-fluoro-6-methoxy-phenoxy)-ethyl]-amine]: the pKi was 7.37.

On to `Fc1ccc(Br)c(OCCNC2=Nc3ccccc3CN2)c1` [Example 46, [2-(2-Bromo-5-fluoro-phenoxy)-ethyl]-(3,4-dihydro-quinazolin-2-yl)-amine], for which the pKi was 7.05.

Consider `COc1ccc2c(c1)CNC(NCCOc1ccccc1Cl)=N2` [Example 56, [2-(2-Chloro-phenoxy)-ethyl]-(6-methoxy-3,4-dihydro-quinazolin-2-yl)-amine], for which the pKi was 7.08.

On to `Cc1ccc2c(c1)CNC(NCCOc1ccccc1Cl)=N2` [Example 58, [2-(2-Chloro-phenoxy)-ethyl]-(6-methyl-3,4-dihydro-quinazolin-2-yl)-amine], for which the pKi was 7.27.

Turning to `Fc1cccc2c1CNC(NCCOc1ccccc1Cl)=N2` [Example 59, [2-(2-Chloro-phenoxy)-ethyl]-(5-fluoro-3,4-dihydro-quinazolin-2-yl)-amine], the pKi is 7.32.

Take `COc1ccc2c(c1)CNC(NCCOc1ccccc1OC)=N2` [Example 62, (6-Methoxy-3,4-dihydro-quinazolin-2-yl)-[2-(2-methoxy-phenoxy)-ethyl]-amine]: the pKi is 7.27.

In the case of `COc1ccccc1OCCNC1=Nc2ccc(C)cc2CN1` [Example 64, [2-(2-Methoxy-phenoxy)-ethyl]-(6-methyl-3,4-dihydro-quinazolin-2-yl)-amine], the pKi is 7.71.

`COc1ccccc1OCCNC1=Nc2cccc(F)c2CN1` [Example 67, (5-Fluoro-3,4-dihydro-quinazolin-2-yl)-[2-(2-methoxy-phenoxy)-ethyl]-amine]: the negative-log Ki (pKi) was 7.63.

Broadly, the pKi is the negative decadic logarithm of the Ki, by convention in mol/L.
